According to article PMC9495676, “Evaluation of the Antimicrobial Properties of a Natural Peptide from Vespa mandarinia Venom and Its Synthetic Analogues as a Possible Route to Defeat Drug-Resistant Microbes” (Biology, 2022):
No end group written: not given here.

Key:
E. faecalis biofilm = test: Antibiofilm assay (MBIC/MBEC), crystal violet; format: cell-based, Enterococcus faecalis; details: TSB, 595 nm, nine replicates from three independent experiments; for MBIC: E. faecalis biofilm inhibition; for MBEC: E. faecalis preformed 24 h biofilm, peptide 24 h at 37 °C
Description: (§1) The minimal biofilm inhibitory concentration assay (MBIC) and minimal biofilm eradication concentration assay (MBEC) were performed on each of the peptides using Gram-positive bacteria cultured in Tryptic Soy Broth (TSB, Sigma-Aldrich, St. Louis, MO, USA) and Gram-negative bacteria cultured in Luria-Bertani broth (LB, Thermo Fisher Scientific, Carlsbad, CA, USA). The seeding concentration in 96-well plates of bacterial suspension was the same as for the anti-bacterial assay, and a UV spectrophotometer set to 550 nm was used to detect OD values. Melittin was used as a positive control. For MBIC, peptide solution was mixed with bacterial suspension at first to test if it could inhibit the growth of biofilm. However, for minimal biofilm eradication (MBEC) assays, biofilm was formed in 96-well plates at 37 °C for 24 h after seeding bacteria; afterwards, it was washed by sterile PBS twice. Peptide solutions, prepared with culture broth, were added to […] the biofilms by incubating at 37 °C for 24 h. Both plates were washed by PBS twice and stained by 125 µL 0.1% crystal violet solution (Sigma-Aldrich, Gillingham, UK). The stain was dissolved in 150 µL 30% acetic acid (Sigma-Aldrich, Gillingham, UK). The absorbance values of 100 µL solution from each well, were analysed by using a Synergy HT plate reader (Biotech, Minneapolis, MN, USA) set at 595 nm.

S. aureus biofilm = test: Antibiofilm assay (MBIC/MBEC), crystal violet; format: cell-based, Staphylococcus aureus; details: TSB, 595 nm, nine replicates from three independent experiments; for MBIC: S. aureus biofilm inhibition; for MBEC: S. aureus preformed 24 h biofilm, peptide 24 h at 37 °C
Description: as §1

MRSA (ATCC 12493) = test: MIC/MBC broth dilution assay; format: cell-based, methicillin-resistant Staphylococcus aureus; details: 37 °C overnight, nine replicates from three independent experiments; for MIC: broth dilution, Mueller–Hinton broth, 5 × 10^5 CFU/mL, OD 550 nm; for MBC: sub-culture on MHA
Description: (§2) The minimal inhibitory concentration assay (MIC) and minimum bactericidal concentration assay (MBC) of the peptide were carried out using the broth dilution method. Seven microbes, including the Gram-positive bacteria, S. aureus (NCTC 6538), MRSA, (ATCC 12493) and Enterococcus faecalis (E. faecalis) (NCTC 12697); Gram-negative bacteria, E. coli (ATCC 8739), Klebsiella pneumoniae (K. pneumoniae) (ATCC 43816) and Pseudomonas aeruginosa (P. aeruginosa) (ATCC 9027); and a yeast, C. albicans (ATCC 10231), were used in these assays and incubated with peptide at 37 °C overnight. The growth culture media were Yeast Extract Peptone Dextrose for C. albicans and Mueller–Hinton broth for others. The concentration of microbes was detected by measuring OD values through the use of a UV spectrophotometer set to 550 nm. C. albicans assays required 10^6 colony forming units (CFU)/mL, while others were incubated with 10^8 CFU/mL and verified by viable cell counts. All of the inocula were diluted to final concentrations of 5 × 10^5 CFU/mL. The concentration of peptides ranged from 1 µM to 512 µM (C = 1, 2, 4, 8, 16, 32, 64, 128, 256, 512 µM). Two mg/mL of amphotericin B for C. albicans and 2 mg/mL norfloxacin for others were applied as positive controls, and 1% of dimethyl sulphoxide (DMSO) was applied as a vehicle control. The 96-well plates were analysed at 550 nm using an ELISA plate reader (Biolise BioTek EL808, Winooski, VT, USA).
(§3) After analysing the growth situation of microbial cultures from each concentration, 10 µL of the inhibited cultures (the peptide concentration ranges from MIC to maximum concentration) were selected to sub-culture onto the Mueller–Hinton agar (MHA) plates. The plates were incubated overnight at 37 °C. After incubation, the lowest concentration on the MHA plates with no bacterial growth was regarded as the MBC value.

E. coli (ATCC 8739) = test: MIC/MBC broth dilution assay; format: cell-based, Escherichia coli; details: 37 °C overnight, nine replicates from three independent experiments; for MIC: broth dilution, Mueller–Hinton broth, 5 × 10^5 CFU/mL, OD 550 nm; for MBC: sub-culture on MHA
Description: as §2, §3

horse erythrocytes = test: Haemolysis assay; format: cell-based; details: 4% (v/v) defibrinated horse erythrocytes, 37 °C, 2 h, 550 nm; normalised to 1% Triton X-100; calculated from the haemolysis curve
Description: Defibrinated horse erythrocytes (TCS Biosciences Ltd., Buckingham, UK) were used in the haemolysis assay. Peptides, from 1 μM to 512 μM, were tested with a 4% (v/v) erythrocyte suspension and were incubated at 37 °C for 2 h, while 1% Triton X-100 (Sigma-Aldrich, St. Louis, MO, USA) was acted as a positive control and phosphate-buffered saline (PBS) was used as a negative control. The sample supernatants were analysed at 550 nm on an ELISA plate reader (Biolise BioTek EL808, Winooski, VT, USA).

C. albicans (ATCC 10231) = test: MIC/MBC broth dilution assay; format: cell-based, Candida albicans; details: 37 °C overnight, nine replicates from three independent experiments; for MIC: broth dilution, Yeast Extract Peptone Dextrose, 5 × 10^5 CFU/mL, OD 550 nm
Description: as §2, §3

[1] = system: K. pneumoniae (ATCC 43816); test: MIC/MBC broth dilution assay; format: cell-based, Klebsiella pneumoniae; details: 37 °C overnight, nine replicates from three independent experiments; for MIC: broth dilution, Mueller–Hinton broth, 5 × 10^5 CFU/mL, OD 550 nm
Description: as §2, §3

E. faecalis (NCTC 12697) = test: MIC/MBC broth dilution assay; format: cell-based, Enterococcus faecalis; details: 37 °C overnight, nine replicates from three independent experiments; for MIC: broth dilution, Mueller–Hinton broth, 5 × 10^5 CFU/mL, OD 550 nm; for MBC: sub-culture on MHA
Description: as §2, §3

P. aeruginosa biofilm = test: Antibiofilm assay (MBIC/MBEC), crystal violet; format: cell-based, Pseudomonas aeruginosa; details: LB, 595 nm, nine replicates from three independent experiments; for MBIC: P. aeruginosa biofilm inhibition; for MBEC: P. aeruginosa preformed 24 h biofilm, peptide 24 h at 37 °C
Description: as §1

[2] = system: P. aeruginosa (ATCC 9027); test: MIC/MBC broth dilution assay; format: cell-based, Pseudomonas aeruginosa; details: 37 °C overnight, nine replicates from three independent experiments; for MIC: broth dilution, Mueller–Hinton broth, 5 × 10^5 CFU/mL, OD 550 nm; for MBC: sub-culture on MHA
Description: as §2, §3

K. pneumoniae biofilm = test: Antibiofilm assay (MBIC/MBEC), crystal violet; format: cell-based, Klebsiella pneumoniae; details: LB, 595 nm, nine replicates from three independent experiments; for MBIC: K. pneumoniae biofilm inhibition; for MBEC: K. pneumoniae preformed 24 h biofilm, peptide 24 h at 37 °C
Description: as §1

MRSA biofilm = test: Antibiofilm assay (MBIC/MBEC), crystal violet; format: cell-based, methicillin-resistant Staphylococcus aureus; details: TSB, 595 nm, nine replicates from three independent experiments; for MBIC: MRSA biofilm inhibition; for MBEC: MRSA preformed 24 h biofilm, peptide 24 h at 37 °C
Description: as §1

S. aureus (NCTC 6538) = test: MIC/MBC broth dilution assay; format: cell-based, Staphylococcus aureus; details: 37 °C overnight, nine replicates from three independent experiments; for MIC: broth dilution, Mueller–Hinton broth, 5 × 10^5 CFU/mL, OD 550 nm; for MBC: sub-culture of inhibited cultures on MHA
Description: as §2, §3

E. coli biofilm = test: Antibiofilm assay (MBIC/MBEC), crystal violet; format: cell-based, Escherichia coli; details: LB, 595 nm, nine replicates from three independent experiments; for MBIC: E. coli biofilm inhibition; for MBEC: E. coli preformed 24 h biofilm, peptide 24 h at 37 °C
Description: as §1

Compound | MBIC (E. faecalis biofilm) [µM] | MBEC (E. faecalis biofilm) [µM] | MBIC (S. aureus biofilm) [µM] | MBEC (S. aureus biofilm) [µM] | MBC (MRSA (ATCC 12493)) | MIC (E. coli (ATCC 8739)) [µM] | HC50 (peptide concentration that caused 50% lysis of horse red blood cells) (horse erythrocytes) [µM] | MIC (C. albicans (ATCC 10231)) [µM] | MIC [1] [µM] | MIC (E. faecalis (NCTC 12697)) | MBIC (P. aeruginosa biofilm) | MBEC (P. aeruginosa biofilm) | MIC [2] [µM] | MBIC (K. pneumoniae biofilm) | MBEC (K. pneumoniae biofilm) | MBIC (MRSA biofilm) [µM] | MBEC (MRSA biofilm) [µM] | MBC (S. aureus (NCTC 6538)) | MBIC (E. coli biofilm) | MBEC (E. coli biofilm) | other results
FLKIIGKLLSGLL-NH2 [VM-3K] | 4 | > 512 | 2 | 32 | 2 µM | 8 | 11.2 | 32 | 32 | 2/2 µM | 32 µM | > 512 µM | 16 | 64 µM | > 512 µM | 2 | 64 | 1 µM | 16 µM | > 512 µM | MIC (MRSA (ATCC 12493)): 1 µM; MBC (E. coli (ATCC 8739)): 8 µM; MBC (C. albicans (ATCC 10231); sub-culture on agar plates): 32 µM; MBC ([1]; sub-culture on MHA): 32 µM; MBC [2]: 16 µM; MIC (S. aureus (NCTC 6538)): 1 µM
FLYIIGKLLSGLL-NH2 [VM-3Y] | 64 | > 512 | 2 | 128 | 2/2 µM | >512 | 211.2 | >512 | >512 | 4 µM | >512/>512 µM | >512/>512 µM | >512 | >512/>512 µM | >512/>512 µM | 2 | 64 | 2/2 µM | >512/>512 µM | >512/>512 µM | MBC (E. faecalis (NCTC 12697)): 4 µM
CC[C@H](C)[C@H](NC(=O)CN)C(=O)NCC(=O)N[C@@H](C)C(=O)N[C@H](C(=O)N[C@@H](CC(C)C)C(=O)N[C@@H](CCCCN)C(=O)N[C@H](C(=O)N[C@@H](CC(C)C)C(=O)N[C@H](C(=O)N[C@H](C(=O)NCC(=O)N[C@@H](CC(C)C)C(=O)N1CCC[C@H]1C(=O)N[C@@H](C)C(=O)N[C@@H](CC(C)C)C(=O)N[C@H](C(=O)N[C@@H](CO)C(=O)N[C@@H](Cc1c[nH]c2ccccc12)C(=O)N[C@H](C(=O)N[C@@H](CCCCN)C(=O)N[C@@H](CCCNC(=N)N)C(=O)N[C@@H](CCCCN)C(=O)N[C@@H](CCCNC(=N)N)C(=O)N[C@@H](CCC(N)=O)C(=O)N[C@@H](CCC(N)=O)C(N)=O)[C@@H](C)CC)[C@@H](C)CC)[C@@H](C)O)[C@@H](C)O)C(C)C)C(C)C [Melittin, reference compound] | 8 | – | 4 | – | – | – | – | – | – | – | 64 µM | – | – | 128 µM | – | 8 | – | – | 32 µM | – | –
FLGIIGKLLSGLL-NH2 [VM-3G] | 8 | > 512 | 2 | 32 | 2 µM | 64 | 9.686 | >512 | >512 | 4 µM | >512/>512 µM | >512/>512 µM | 128 | >512/>512 µM | >512/>512 µM | 2 | 32 | 1 µM | 256 µM | > 512 µM | MIC (MRSA (ATCC 12493)): 2 µM; MBC (E. coli (ATCC 8739)): 128 µM; MBC (E. faecalis (NCTC 12697)): 4 µM; MBC [2]: 128 µM; MIC (S. aureus (NCTC 6538)): 1 µM
FLWIIGKLLSGLL-NH2 [VM-3W] | 16 | > 512 | 4 | 128 | 2 µM | >512 | 9.682 | >512 | >512 | 4 µM | >512/>512 µM | >512/>512 µM | >512 | >512/>512 µM | >512/>512 µM | 4 | 128 | 1 µM | >512/>512 µM | >512/>512 µM | MIC (MRSA (ATCC 12493)): 2 µM; MBC (E. faecalis (NCTC 12697)): 4 µM; MIC (S. aureus (NCTC 6538)): 1 µM
